In patent US8536120B2 (The Administrators of The Tulane Educational Fund, priority 2006, dated 2013):
Where no end group is shown, it is not given here. [ ]: non-standard residue; d: D form. d2Nal = N[C@H](Cc1ccc2ccccc2c1)C(=O)O

Experiments:
[1] = target: T1, Ghrelin/GHRP/GHS Receptor (Rattus norvegicus, UniProt O08725); assay: In vitro cell culture method: GH release from cell culture of pituitary cells, peptide alone or plus stimulator; format: cell-based; parameters: from cell culture of pituitary cells; endogenous in cells; host or cells: dispersed primary rat anterior pituitary cells, 4 days in culture; settings: for GH release, first line of entry (mark P + S): stimulator 1 ng/ml
Experimental: (§1) The peptides were synthesized by the solid phase method and purified by HPLC. GH was determined by Radioimmunoassay (RIA).
In vitro GH Release-Female rats of the CD-1 strain were housed in a constant temperature room at 24° C. with 14 h light and 10 h darkness. The rats were fed Purina Rat chow and water at libitum. All studies were started between 0800-1000 hours. Pituitaries of mature female Sprague Dawley rats were rapidly removed after decapitation, neurointermediate lobe discarded and then placed in a pH 7.4 buffer. The pituitaries were cut into ˜3-mm pieces and then transferred to a flask containing HEPS buffer with trypsin and incubated at 37° C. Cells were triturated several times during this period. After dispersion, the cells were collected by centrifugation, wash with DMEM and placed into culture well. Cell cultures were maintained for 4 days at 37° with 8% CO2 added to the incubator atmosphere. After 4 days in culture, cells were washed with lactated Ringer's solution adjusted to pH 7.2-7.4 and then vehicle, peptide alone or peptide plus stimulator was added to media. Incubation time was 60-120 minutes after which media was removed from each well for GH determination. The GH RIA reagents were distributed by the NIH. Control data was collected from cell cultures treated with only the corresponding vehicle in the absence of peptide or stimulator. Control stimulated data was collected from cell cultures treated with stimulator alone in the absence of any peptide.

[2] = target: T1, Ghrelin/GHRP/GHS Receptor; assay: In vivo assay of GH release in rat, i.v. peptide alone or plus stimulator, serum GH by RIA; settings: Table 4; Pentobarbital Rats; peptide 30 μg i.v. + stimulator DAla-DβNal-Ala-Trp-DPhe-Lys-NH2 1 μg
Experimental: as §1
For the in vivo assay of GH Release in rat, immature female Sprague Dawley rats were obtained from Charles River from Wilmington, Mass. After arrival they were housed at 25° C. with a 14:10 h light:dark cycle. Water and Purina rat chow were available at libitum. Pups were weaned at 21 days of age.
Immature twenty six day old female Sprague Dawley rats, 3-6 rats per treatment dose, were pretreated with pentobarbital 20 minutes before iv injection of vehicle/peptide or peptide plus stimulator. Injection was made as a 0.1 ml solution. For the non-pentobarbital treated rat assay, peptides were administered iv into the tail vein of conscious rats. All animals were sacrificed by guillotine after iv peptide or vehicle. Trunk blood was collected at +10-15 minutes […], allowed to clot, centrifuged and serum stored until assayed for GH levels by RIA. The GH RIA reagents were distributed by the NIH. Control data was collected from rats treated with only the corresponding vehicle in the absence of peptide or stimulator. Control stimulated data was collected from rats treated with stimulator alone in the absence of any peptide.

T1 sequence (O08725 whole entry): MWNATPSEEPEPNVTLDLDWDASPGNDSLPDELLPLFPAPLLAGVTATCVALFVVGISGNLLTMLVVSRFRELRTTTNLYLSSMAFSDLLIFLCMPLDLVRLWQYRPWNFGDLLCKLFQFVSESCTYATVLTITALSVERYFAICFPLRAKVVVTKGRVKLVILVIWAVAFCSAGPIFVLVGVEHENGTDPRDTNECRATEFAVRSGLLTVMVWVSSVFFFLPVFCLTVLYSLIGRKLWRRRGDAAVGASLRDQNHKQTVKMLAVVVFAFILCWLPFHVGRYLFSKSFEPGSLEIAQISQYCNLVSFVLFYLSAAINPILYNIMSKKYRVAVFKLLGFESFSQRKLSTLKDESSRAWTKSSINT

GH release, second line of entry (no mark) ([1]; Table 10, 10 μg/ml) | GH release, first line of entry (mark P + S) ([1]; Table 10, 10 μg/ml) | GH release, second line of entry (no mark) ([1]; Table 10, 30 μg/ml) | GH release, first line of entry (mark P + S) ([1]; Table 10, 30 μg/ml) | Compound | also measured
344 ± 6 ng/mL | 520 ± 61 ng/mL | 486 ± 29 ng/mL | 577 ± 24 ng/mL | N[C@H](Cc1c[nH]c2ccccc12)C(=O)N1CCC(c2ccccc2)CC1 [DTrp-4-phenylpiperdinamide, (R)-2-amino-3-(1H-indol-3-yl)-1-(4-phenylpiperidin-1-yl)propan-1-one] | GH release, second line of entry (no mark) ([1]; Table 10, 1 μg/ml): 1085 ± 1 ng/mL; GH release, first line of entry (mark P + S) ([1]; Table 10, 1 μg/ml): 815 ± 26 ng/mL; GH release, second line of entry (no mark) ([1]; Table 10, 3 μg/ml): 917 ± 4 ng/mL; GH release, first line of entry (mark P + S) ([1]; Table 10, 3 μg/ml): 390 ± 35 ng/mL
480 ± 9 ng/mL | 373 ± 2 ng/mL | 223 ± 22 ng/mL | 176 ± 11 ng/mL | CCOC(=O)c1cc2ccccc2cc1C(=O)N1CCC(c2ccccc2OC)CC1 [ethyl 3-(4-(2-methoxyphenyl)piperidine-1-carbonyl)-2-naphthoate] | 

The remaining lines, values behind:

Compound | GH release, second line of entry (no mark) ([1]; Table 10, 10 μg/ml) | GH release, first line of entry (mark P + S) ([1]; Table 10, 10 μg/ml) | GH release, second line of entry (no mark) ([1]; Table 10, 30 μg/ml) | GH release, first line of entry (mark P + S) ([1]; Table 10, 30 μg/ml) | also measured
CC(C)(N)C(=O)N[C@H](COCc1ccccc1)C(=O)N1CCN(c2ccccc2)CC1 [αAibDSer(BZL)-N′-phenyl-N-piperazinamide, (R)-2-amino-N-(3-(benzyloxy)-1-oxo-1-(4-phenylpiperazin-1-yl)propan-2-yl)-2-methylpropanamide] | 878 ± 30 ng/mL | 777 ± 34 ng/mL | 510 ± 15 ng/mL | 499 ± 18 ng/mL | 
COC(=O)c1cc2ccccc2cc1C(=O)Nc1ccc(C)cc1 [methyl 3-(p-tolylcarbamoyl)-2-naphthoate] |  |  |  |  | GH release, second line of entry (no mark) ([1]; Table 11, 10 μg/ml): 1149 ± 33 ng/mL; GH release, first line of entry (mark P + S) ([1]; Table 11, 10 μg/ml): 754 ± 32 ng/mL; GH release, second line of entry (no mark) ([1]; Table 11, 30 μg/ml): 886 ± 29 ng/mL; GH release, first line of entry (mark P + S) ([1]; Table 11, 30 μg/ml): 498 ± 26 ng/mL
[dA][d2Nal][dK][dW]FK-NH2 |  |  |  |  | Stimulated GH release (P + S) [2]: 2884 ± 828 ng/mL
NCCCC[C@@H](NC(=O)[C@@H](CO)NC(=O)c1ccccc1)C(=O)N[C@@H](Cc1c[nH]c2ccccc12)C(=O)N1CCC(c2ccccc2)CC1 [N—((R)-1-((R)-1-((S)-3-(1H-indol-3-yl)-1-oxo-1-(4-phenylpiperidin-1-yl)propan-2-ylamino)-6-amino-1-oxohexan-2-ylamino)-3-hydroxy-1-oxopropan-2-yl)benzamide] | 353 ± 10 ng/mL | 369 ± 30 ng/mL |  |  | GH release, second line of entry (no mark) ([1]; Table 10, 3 μg/ml): 432 ± 25 ng/mL; GH release, first line of entry (mark P + S) ([1]; Table 10, 3 μg/ml): 393 ± 54 ng/mL
N[C@H](COCc1ccccc1)C(=O)N1CCN(c2ccccc2)CC1 [D Ser(BZL)-N′-phenyl-N-piperazinamide, (R)-2-amino-3-(benzyloxy)-1-(4-phenylpiperazin-1-yl)propan-1-one] | 719 ± 26 ng/mL | 585 ± 10 ng/mL | 435 ± 0 ng/mL | 368 ± 2 ng/mL | 
